Source: publication PMC10688820 (Microbiome Research Reports, 2023)
Like-named read-outs stand apart in the source and are kept apart here.

What was measured:
BiBga42A [1] = target: T1, BiBga42A (Bifidobacterium longum, UniProt Z9E2X9H8H4, A160E/A318E, form not given); test: coupled colorimetric Gal release assay (Thio-NADH, […] nm); type: biochemical; details: 100 mM citrate-phosphate pH 6.5, 37 °C, 12.5 mM MgCl2 (coupling mix)
T1 construct: C-terminal hexahistidine tag, pET23b, expressed in E. coli BL21 (DE3) ΔlacZ; GH42; homotrimer, active site completed by W200 and F221 of neighbouring subunit

BiBga42A [2] = target: T2, BiBga42A (Bifidobacterium longum, UniProt Z9E2X9H8H4, A160E/A318S, form not given); test: X-ray co-crystal structure, […] Å; type: binding; details: co-crystallised with 100 mM LNT, pH 5.8; subsites -1 to +3
T2 construct: C-terminal hexahistidine tag, pET23b, expressed in E. coli BL21 (DE3) ΔlacZ; GH42; homotrimer, active site completed by W200 and F221 of neighbouring subunit

BiBga42A [3] = target: T3, BiBga42A (Bifidobacterium longum, UniProt Z9E2X9H8H4, A160E/Y287F/A318E, form not given); test: coupled colorimetric Gal release assay (Thio-NADH, […] nm); type: biochemical; details: 100 mM citrate-phosphate pH 6.5, 37 °C, 12.5 mM MgCl2 (coupling mix); read-out: LNT
T3 construct: C-terminal hexahistidine tag, pET23b, expressed in E. coli BL21 (DE3) ΔlacZ; GH42; homotrimer, active site completed by W200 and F221 of neighbouring subunit

BiBga42A [4] = target: T4, BiBga42A (Bifidobacterium longum, UniProt Z9E2X9H8H4, A160E/M262G/A318E, form not given); test: as above; type: biochemical; details: 100 mM citrate-phosphate pH 6.5, 37 °C, 12.5 mM MgCl2 (coupling mix); read-out: LNT
T4 construct: C-terminal hexahistidine tag, pET23b, expressed in E. coli BL21 (DE3) ΔlacZ; GH42; homotrimer, active site completed by W200 and F221 of neighbouring subunit

BiBga42A [5] = target: T5, BiBga42A (Bifidobacterium longum, UniProt Z9E2X9H8H4, A160E/A318E/R327A, form not given); test: as above; type: biochemical; details: 100 mM citrate-phosphate pH 6.5, 37 °C, 12.5 mM MgCl2 (coupling mix); read-out: LNT
T5 construct: C-terminal hexahistidine tag, pET23b, expressed in E. coli BL21 (DE3) ΔlacZ; GH42; homotrimer, active site completed by W200 and F221 of neighbouring subunit

BiBga42A [6] = target: T6, BiBga42A (Bifidobacterium longum, UniProt Z9E2X9H8H4, A160E/F221A/A318E, form not given); test: as above; type: biochemical; details: 100 mM citrate-phosphate pH 6.5, 37 °C, 12.5 mM MgCl2 (coupling mix); read-out: LNT
T6 construct: C-terminal hexahistidine tag, pET23b, expressed in E. coli BL21 (DE3) ΔlacZ; GH42; homotrimer, active site completed by W200 and F221 of neighbouring subunit

BiBga42A [7] = target: T7, BiBga42A (Bifidobacterium longum, UniProt Z9E2X9H8H4, R121A/A160E/A318E, form not given); test: as above; type: biochemical; details: 100 mM citrate-phosphate pH 6.5, 37 °C, 12.5 mM MgCl2 (coupling mix)
T7 construct: C-terminal hexahistidine tag, pET23b, expressed in E. coli BL21 (DE3) ΔlacZ; GH42; homotrimer, active site completed by W200 and F221 of neighbouring subunit

BiBga42A [8] = target: T8, BiBga42A (Bifidobacterium longum, UniProt Z9E2X9H8H4, A160E/A318E/W326A, form not given); test: as above; type: biochemical; details: 100 mM citrate-phosphate pH 6.5, 37 °C, 12.5 mM MgCl2 (coupling mix)
T8 construct: C-terminal hexahistidine tag, pET23b, expressed in E. coli BL21 (DE3) ΔlacZ; GH42; homotrimer, active site completed by W200 and F221 of neighbouring subunit

BiBga42A [9] = target: T9, BiBga42A (Bifidobacterium longum, UniProt Z9E2X9H8H4, A160E, form not given); test: as above; type: biochemical; details: 100 mM citrate-phosphate pH 6.5, 37 °C, 12.5 mM MgCl2 (coupling mix); read-out: pNP-Gal
T9 construct: C-terminal hexahistidine tag, pET23b, expressed in E. coli BL21 (DE3) ΔlacZ; GH42; homotrimer, active site completed by W200 and F221 of neighbouring subunit

BiBga42A [10] = target: T10, BiBga42A (Bifidobacterium longum, UniProt Z9E2X9H8H4, A318E, form not given); test: as above; type: biochemical; details: 100 mM citrate-phosphate pH 6.5, 37 °C, 12.5 mM MgCl2 (coupling mix); read-out: pNP-Gal
T10 construct: C-terminal hexahistidine tag, pET23b, expressed in E. coli BL21 (DE3) ΔlacZ; GH42; homotrimer, active site completed by W200 and F221 of neighbouring subunit

[11] = target: BiBga42A E160A/E318A double mutant (Bifidobacterium longum subsp. infantis ATCC 15697); test: crystal structure; hanging drop vapor diffusion, 20 °C, 20 mg/mL protein; trimer seen by a crystallographic 3-fold axis (WT-GOL, E318S-LNT) or within the asymmetric unit (E160A/E318A-Gal)
[12] = target: BiBga42A E318S mutant (Bifidobacterium longum subsp. infantis ATCC 15697); test: as above
[13] = target: BiBga42A wild-type (WT) enzyme, glycoside hydrolase family 42 β-galactosidase from Bifidobacterium longum subsp. infantis ATCC 15697 (Bifidobacterium longum subsp. infantis ATCC 15697); test: as above

With `CC(=O)N[C@H]1C(O)O[C@H](CO)[C@@H](O)[C@@H]1O[C@@H]1O[C@H](CO)[C@H](O)[C@H](O)[C@H]1O` (some centres unmarked) [LNB] the Km (BiBga42A [1]; read-out: LNB) was 25 mM.
In the case of `CC(=O)N[C@H]1[C@H](O[C@H]2[C@@H](O)[C@@H](CO)O[C@@H](O[C@H]3[C@H](O)[C@@H](O)C(O)O[C@@H]3CO)[C@@H]2O)O[C@H](CO)[C@@H](O)[C@@H]1O[C@@H]1O[C@H](CO)[C@H](O)[C@H](O)[C@H]1O` (some centres unmarked) [LNT], the “X-ray co-crystal structure, 2.2 Å” value (BiBga42A [2]) is reported as “An LNT-complexed crystal was indeed obtained for the mutant”, the Km (BiBga42A [3]) is reported as 2.6 mM and the Km (BiBga42A [1]; read-out: LNT) is reported as 2.7 mM. The Km (BiBga42A [4]) was 3 mM, the Km (BiBga42A [5]) was 11 mM and the Km (BiBga42A [6]) was 8.4 mM. It also gave a Km (BiBga42A [7]; read-out: LNT) of 16 mM and a Km (BiBga42A [8]; read-out: LNT) of 7.7 mM.
For `O=[N+]([O-])c1ccc(O[C@@H]2O[C@H](CO)[C@H](O)[C@H](O)[C@H]2O)cc1` [pNP-Gal], the Km (BiBga42A [9]) was 1.4 mM, the Km (BiBga42A [1]; read-out: pNP-Gal) was 0.57 mM and the Km (BiBga42A [10]) was 0.94 mM. The Km (BiBga42A [7]; read-out: pNP-Gal) was 1.4 mM and the Km (BiBga42A [8]; read-out: pNP-Gal) was 12 mM.
Compound “BiBga42A E160A/E318A double mutant (enzyme)” has a stoichiometry N [11] of 3.
BiBga42A E318S mutant (enzyme) gave a stoichiometry N [12] of 3.
“BiBga42A wild-type (WT) enzyme, glycoside hydrolase family 42 β-galactosidase from Bifidobacterium longum subsp. infantis ATCC 15697” gave a stoichiometry N [13] of 3.
